Test results reported in patent US20140187559A1, “INHIBITORS OF THE FIBROBLAST GROWTH FACTOR RECEPTOR” (BLUEPRINT MEDICINES CORPORATION, priority 2012, published 2014).

Molecular target: T1, wild type FGFR-4 (Homo sapiens, UniProt P22455)
T1 construct: purchased Carna Biosciences, Inc
Assay: FGFR-4 wild type assay at Km (Caliper mobility shift)
Assay type: biochemical
Details: for IC50: 400 uM ATP, 25 C, 90 minutes, read-out: FGFR4 IC50; for Ratio FGFR1/FGFR4: [IC50 for FGFR1]/[IC50 for FGFR4]
Protocol: In order to assess the activity of chemical compounds against the relevant kinase of interest, the Caliper LifeSciences electrophoretic mobility shift technology platform is utilized. Fluorescently labeled substrate peptide is incubated in the presence dosed levels of compounds, a set concentration of kinase and of ATP, so that a reflective proportion of the peptide is phosphorylated. At the end of the reaction, the mix of phosphorylated (product) and non-phosphorylated (substrate) peptides are passed through the microfluidic system of the Caliper LabChip® EZ Reader II, under an applied potential difference. The presence of the phosphate group on the product peptide provides a difference in mass and charge between the product peptide and the substrate peptide, resulting in a separation of the substrate and product pools in the sample. As the pools pass the LEDS within the instrument, these pools are detected and resolved as separate peaks. The ratio between these peaks therefore reflects the activity of the chemical matter at that concentration in that well, under those conditions.
The reaction was stopped by the addition of 70 ul of Stop buffer (100 mM HEPES pH 7.5, 0.015% Brij 35, 35 mM EDTA and 0.2% of Coating Reagent 3 (Caliper Lifesciences)). The plate was then read on a Caliper LabChip® EZ Reader II (protocol settings: —1.9 psi, upstream voltage—700, downstream voltage—3000, post sample sip 35 s).

T1 sequence (P22455 22-802): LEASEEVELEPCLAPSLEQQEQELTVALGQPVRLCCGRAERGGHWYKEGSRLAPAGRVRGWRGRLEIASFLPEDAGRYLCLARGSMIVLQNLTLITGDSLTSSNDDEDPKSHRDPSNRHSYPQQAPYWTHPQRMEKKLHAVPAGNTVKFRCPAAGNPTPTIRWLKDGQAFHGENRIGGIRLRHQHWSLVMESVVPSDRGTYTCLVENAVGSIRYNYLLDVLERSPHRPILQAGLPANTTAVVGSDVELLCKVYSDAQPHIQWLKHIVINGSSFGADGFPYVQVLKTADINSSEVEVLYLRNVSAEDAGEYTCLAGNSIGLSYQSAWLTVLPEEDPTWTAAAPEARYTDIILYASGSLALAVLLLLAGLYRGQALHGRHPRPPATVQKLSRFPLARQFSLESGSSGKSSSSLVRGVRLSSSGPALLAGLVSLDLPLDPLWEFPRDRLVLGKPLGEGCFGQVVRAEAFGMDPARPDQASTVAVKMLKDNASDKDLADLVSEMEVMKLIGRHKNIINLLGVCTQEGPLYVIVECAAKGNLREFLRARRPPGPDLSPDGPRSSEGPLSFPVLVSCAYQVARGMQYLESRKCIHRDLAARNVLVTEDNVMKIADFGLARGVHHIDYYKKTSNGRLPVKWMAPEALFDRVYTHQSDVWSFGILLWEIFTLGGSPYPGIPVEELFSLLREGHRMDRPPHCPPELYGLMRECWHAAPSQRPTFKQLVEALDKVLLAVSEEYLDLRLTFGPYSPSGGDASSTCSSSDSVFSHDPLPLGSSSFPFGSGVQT

SMILES | IC50 | Ratio FGFR1/FGFR4
C=CC(=O)Nc1cc(C(=O)NC2CCN(C)CC2)ccc1Nc1ncc(C)c(N2CCN(C(=O)Nc3ccc(C#N)cc3)CC2)n1 [COMPOUND 54, 4-(2-((2-acrylamido-4-((1-methylpiperidin-4-yl)carbamoyl)phenyl)amino)-5-methylpyrimidin-4-yl)-N-(4-cyanophenyl)piperazine-1-carboxamide] | 10 to 100 nM | –
C=CC(=O)Nc1cccc(C)c1Nc1ncc2cc(-c3cc(OC)cc(OC)c3)cnc2n1 [COMPOUND 10, N-(2-((6-(3,5-dimethoxyphenyl)pyrido[2,3-d]pyrimidin-2-yl)amino)-3-methylphenyl)acrylamide] | – | E (the ratio is ≧10 and <50)
C=CC(=O)N(C)c1ncc2cc(-c3cc(OC)cc(OC)c3)ccc2n1 [COMPOUND 1] | – | C (the ratio is ≧100 and <200)
C=CC(=O)Nc1ccccc1Nc1cc2c(cn1)cc(-c1cc(OC)cc(OC)c1)c(=O)n2C [COMPOUND 15] | 10 to 100 nM | B (the ratio is ≧200 and <500)
C=CC(=O)Nc1cccc(C)c1Nc1ncc2cc(-c3c(Cl)cccc3Cl)ccc2n1 [COMPOUND 13] | 10 to 100 nM | D (the ratio is ≧50 and <100)
C=CC(=O)Nc1cccc(C)c1Nc1ncc2cc(-c3c(Cl)cccc3Cl)c(=O)n(C)c2n1 [COMPOUND 22] | 10 to 100 nM | B (the ratio is ≧200 and <500)
C=CC(=O)Nc1ccccc1Nc1ncc2cc(-c3c(Cl)c(OC)cc(OC)c3Cl)c(=O)n(C)c2c1C [COMPOUND 40, N-(2-((3-(2,6-dichloro-3,5-dimethoxyphenyl)-1,8-dimethyl-2-oxo-1,2-dihydro-1,6-naphthyridin-7-yl)amino)phenyl)acrylamide] | 100 to 1000 nM | –
C=CC(=O)N(C)c1ncc2cc(-c3c(Cl)cccc3Cl)ccc2n1 [COMPOUND 2] | 100 to 1000 nM | D (the ratio is ≧50 and <100)
C=CC(=O)Nc1ccccc1Nc1ncc(Cl)c(N2CCN(C(=O)Nc3cccc(C(F)(F)F)c3)CC2)n1 [COMPOUND 50, 4-(2-((2-acrylamidophenyl)amino)-5-chloropyrimidin-4-yl)-N-(3-(trifluoromethyl)phenyl)piperazine-1-carboxamide] | 100 to 1000 nM | –
C=CC(=O)Nc1cccc(C)c1Nc1ncc(C#Cc2c(Cl)c(OC)cc(OC)c2Cl)cn1 [COMPOUND 24, N-(2-((5-((2,6-dichloro-3,5-dimethoxyphenyl)ethynyl)pyrimidin-2-yl)amino)-3-methylphenyl)acrylamide] | 10 to 100 nM | –
C=CC(=O)Nc1cccc(C)c1Nc1ncc2nc(-c3c(Cl)c(OC)cc(OC)c3Cl)c(=O)n(C)c2n1 [COMPOUND 45, N-(2-((6-(2,6-dichloro-3,5-dimethoxyphenyl)-8-methyl-7-oxo-7,8-dihydropteridin-2-yl)amino)-3-methylphenyl)acrylamide] | – | E (the ratio is ≧10 and <50)
C=CC(=O)Nc1cccc(C)c1Nc1ncc(C#Cc2cc(OC)cc(OC)c2)cn1 [COMPOUND 6, N-(2-((5-((3,5-dimethoxyphenyl)ethynyl)pyrimidin-2-yl)amino)-3-methylphenyl)acrylamide] | 100 to 1000 nM | –
C=CC(=O)Nc1cccc(C)c1Nc1ncc2cc(-c3cc(C(N)=O)ccc3F)ccc2n1 [COMPOUND 9] | 100 to 1000 nM | D (the ratio is ≧50 and <100)
C#CC(=O)NCc1cccn2c(-c3cc(NC(=O)NCC(F)(F)F)cc(OC(C)C)c3)cnc12 [COMPOUND 20, N-((3-(3-isopropoxy-5-(3-(2,2,2-trifluoroethyl)ureido)phenyl)imidazo[1,2-a]pyridin-8-yl)methyl)propiolamide] | 10 to 100 nM | –
C=CC(=O)Nc1cc(F)cc(F)c1Nc1ncc2cc(-c3c(Cl)c(OC)cc(OC)c3Cl)ccc2n1 [COMPOUND 36] | 100 to 1000 nM | B (the ratio is ≧200 and <500)
C=CC(=O)Nc1cc(F)cc(C)c1Nc1ncc2cc(-c3c(Cl)c(OC)cc(OC)c3Cl)ccc2n1 [COMPOUND 32] | – | C (the ratio is ≧100 and <200)
C=CC(=O)Nc1cccc(C)c1Nc1cc2c(cn1)cc(-c1c(Cl)c(OC)cc(OC)c1Cl)c(=O)n2C [COMPOUND 39] | – | E (the ratio is ≧10 and <50)
